Test results reported in patent publication US12421499B2, “Method of differentiation of human pluripotent stem cells to monohormonal cells” (Cornell University, priority 2018, dated 2025).

How the values were obtained:
[1] = tested on: GLIS3−/− PP2-β cells; assay: Cell death rate (PI+ INS+ cells in INS+ cells), propidium iodide staining; type: cell-based, human; details: for cell death rate: INS-GFP+ GLIS3−/− PP2-β cells
Experimental: Propium iodide cell viability staining. Cells at D30_L were dissociated using Accutase and replated onto 96-well plates coated with 804-G conditioned medium. Once attached, cells were stained by 2.5 μg mL^−1 propium iodide in DMEM for 12 min, washed once with DMEM and fixed with 4% paraformaldehyde for 20 min. DAPI was used to quantify total number of cells after fixation. Plates were analyzed using a Molecular Devices ImageXpress High-Content Analysis System. Data was quantified using MetaXpress software.

[2] = tested on: GLIS3−/− PP2-β cells; assay: Cell apoptosis rate (cleaved caspase-3+ INS+ cells in INS+ cells) and INS+ cell number, high content imaging; type: cell-based, human; details: for cell apoptosis rate: INS-GFP+ GLIS3−/− PP2-β cells
Experimental: Immunofluorescence staining. Cells were fixed in 4% paraformaldehyde solution (Affymetrix) for 20 min, then blocked and permeabilized in PBS solution containing 5% horse serum and 0.3% Triton for 1 hr at room temperature. The cells were incubated with primary antibodies overnight at 4 C followed by 1 hr incubation with fluorescence-conjugated secondary antibodies (Alexafluor, ThermoFisher Scientific) at RT. For pSMAD2/3 staining, cells were permeabilized with ice-cold methanol at ˜20 C for 10 min after fixation and prior to blocking. The following primary antibodies were used: anti-OCT4 (1:200, Santa Cruz), anti-SOX17 (1:500, R&D), anti-PDX1 (1:500, R&D), anti-SOX9 (1:1000, Millipore), anti-NKX6.1 (1:500, DSHB), anti-NKX2.2 (1:500, DSHB), anti-PAX6 (1:1000, Covance), anti-ISL1 (1:200, DSHB), anti-UCN3 (1:500, Phoenix Pharmaceuticals), anti-NGN3 (1:500, R&D), anti-chromogranin A (1:1000, Immunostar), anti-glucagon (1:2000, Sigma) anti-somatostatin (1:1000, DAKO), anti-ghrelin (1:500, Santa Cruz), anti-insulin (1:500, DAKO) and anti-cleaved caspase-3 (1:1000, BD Biosciences), anti-pSMAD2/3 (1:200, Cell Signaling).
High throughput chemical screening. To perform the high throughput small molecule screening, GLIS3^−/− cells at D26_L were dissociated using Accutase and replated onto 804G-coated 384-well plates at 20,000 cells/80 μl medium/well. After 8 hr, cells were treated at 1 μM and 10 μM with compounds from an in-house library of 300 signaling pathway modulators, an epigenetics library (Cayman Chemical), Prestwick library of approved drugs (FDA, EMA and other agencies), LOPAC (Sigma Aldrich) and the MicroSource library totaling 5000 chemicals. DMSO treatment was used as a negative control. Untreated wells containing WT cells were included as positive control. After 4 days of culture, cells were first stained with 2.5 μg/mL PI and then fixed and stained using antibodies against Insulin (DAKO) and cleaved caspase-3 (BD biosciences). Plates were analyzed using a Molecular Devices ImageXpress High-Content Analysis System. Two-dimensional analysis was used. Compounds inducing lower % cleaved caspase-3 (Z-score<−1.5) and a similar or higher number of INS^+ cells compared to DMSO treated wells were selected as primary hits.

[3] = tested on: SMAD2/3 phosphorylation; assay: Western blot of SMAD2/3 phosphorylation; type: cell-based, human; details: 10 μM; GLIS3−/− cells at D30_L; vs DMSO
Experimental: Western blot analysis. Whole-cell lysates were generated by scraping cultures on day 24 of differentiation in cold PBS, and re-suspending in complete lysis buffer (20 mM Tris pH 7.0, 150 mM NaCl, 50 mM NaF, 1% NP-40 substitute, and Thermo Scientific HALT protease inhibitor cocktail 1:100). Lysates were loaded onto 10% NuPage Bis-Tris gels (Invitrogen), resolved by electrophoresis, and transferred to PVDF membranes (Bio-Rad). Membranes were blocked with 5% bovine serum albumin in TBS+ 0.05% Tween and probed overnight with primary antibody. The antibodies were rabbit anti-phospho-SMAD2/3 (1:250, Cell Signaling), rabbit anti-SMAD2/3 XP (1:5000, Cell Signaling), and mouse anti-β-actin (1:50000, Sigma A1978). Membranes were washed and incubated for 1 hr with HRP-conjugated secondary antibody (Bio-Rad) in 5% milk-TBS-0.05% Tween and developed using SuperSignal West Pico (Thermo Scientific) or Immobilon (Millipore) ECL substrate.

[4] = tested on: GLIS3−/− PP2 cells transplanted under the kidney capsule; assay: In vivo transplantation and drug treatment, graft apoptosis by immunohistochemistry; parameters: species or system SCID-beige mice; details: 15 mg/kg/day intraperitoneal for seven days, vs vehicle
Experimental: In vivo transplantation and drug treatment. WT and isogenic mutant hESCs at day 24 of differentiation (around 1 million cells) were harvested by cell scraper, mixed with 20 μl Matrigel (Corning) and transplanted under the kidney capsule of 6-8 weeks old male SCID-beige mice. For drug treatment, mice were injected intraperitoneally with 15 mg/kg/day galunisertib or vehicle for seven days. To prepare the injection cocktail, 200 mM galunisertib in DMSO was diluted ˜15 times with a 50:50 mixture of PEG300 (Sigma Aldrich) and saline (APP Pharmaceuticals). All animal work was conducted in agreement with NIH guidelines and approved by the local Institutional Animal Care and Use Committee (IACUC), the Institutional Biosafety Committee (IBC) as well as the Embryonic Stem Cell Research Committee (ESCRO).
Immunohistochemistry. Mouse kidneys with cells grafted under the capsules were washed with PBS, fixed with 4% paraformaldehyde at 4C overnight and transferred to 30% sucrose solution for dehydration. […] The slides were blocked and permeabilized in PBS solution containing 5% horse serum and 0.3% Triton for 1 hr at RT and then incubated with primary antibodies overnight at 4C followed by 1 hr incubation with fluorescence-conjugated secondary antibodies (Alexafluor, ThermoFisher Scientific) at RT. […] Fluorescent images were scored using MetaMorph® image analysis software (Molecular Devices).

[5] = tested on: WT INS-GFP+ PP2-β cells; assay: Annexin V apoptosis analysis in wild-type cells; type: cell-based, human; details: 10 μM
Experimental: Annexin V cellular apoptosis analysis. hESC derived cells were dissociated by Accutase and washed with cold PBS, stained with the PE/Annexin V apoptosis detection Kit (BD Bioscience, 559763) or A647-conjugated annexin V (Thermo Fisher Scientific) according to manufacturer's instructions, the samples were the analyzed by flow cytometry (BD Bioscience, FASC ARIA2) within 30 min. To include a positive control for apoptosis, cells were incubated with 10 μM Camptothecin (Sigma Aldrich) or DMSO for 4 hours prior to Annexin V staining.

[6] = 10 μM, GLIS3−/− cells at D30_L, vs DMSO

SMILES	cell death rate ([1]; 10 μM)	cell apoptosis rate ([2]; 10 μM)	cell death rate ([1]; 1 μM)	cell apoptosis rate ([2]; 1 μM)	also measured
Cc1cccc(-c2nn(C(=S)Nc3ccccc3)cc2-c2ccnc3ccccc23)n1 [A83-01]	significantly decrease	significantly decrease	–	–	–
c1ccc(-c2[nH]ncc2-c2ccnc3ccccc23)nc1 [LY-364947]	significantly decrease	significantly decrease	–	–	–
NC(=O)c1ccc(-c2nc(-c3ccccn3)c(-c3ccc4c(c3)OCO4)[nH]2)cc1 [SB431642]	–	–	significantly decrease	significantly decrease	–
Cc1cccc(-c2[nH]c(C(C)(C)C)nc2-c2ccc3nccnc3c2)n1 [SB525334]	–	–	significantly decrease	significantly decrease	–
Cc1cccc(-c2nn3c(c2-c2ccnc4ccc(C(N)=O)cc24)CCC3)n1 [galunisertib]	–	–	–	–	increased SMAD2/3 phosphorylation [3]: inhibits; cell death [1, 6]: significantly reduces; cell apoptosis rate in the transplanted cells (cleaved caspase-3+/STEM121+ cells in STEM121+ cells) ([4]; cells pre-treated with 10 μM for 16 hr): significantly decreases; cell apoptosis rate in INS+ and PDX1+ cells in the grafts [4]: significantly decreases; cell apoptosis of WT INS+ cells [5]: does not affect; number of INS+ cells ([2]; 10 μM, GLIS3−/− PP2-β cells, normalized to DMSO): increases; cell apoptosis [2, 6]: significantly reduces; IC50 ([2]; Homo sapiens, dose-dependent, inhibitory curve FIG. 4c, read-out: IC50, rescue of loss of GLIS3-induced pancreatic β-cell apoptosis): 1.14 µM
